# Experimental data published in patent US7510836B2, “Alpha arteether resistance domain” (priority 2003, dated 2009).
# What was measured:
# Assay type in all cases: cell-based, Escherichia coli
# [1] = system: E. coli mutant CA8007; assay: Disc diffusion, zone of inhibition; conditions: 250 μg/disc, Luria agar
# Method: (§1) To ascertain the involvement of gyrA mutation, another E.coli strain NK 5819 which is also GyrA″ and nalidixic acid resistant was tested for arteether sensitivity. As expected, strain NK5819 was also sensitive only to a-isomer of arteether. […] The assays for arteether sensitivity was performed by the standard single disk diffusion method (Bauer et al, 1966). As a next step, we isolated gyrA mutants of E.coli strain CA 8000, which is otherwise Gyr+ and nalidixic acid sensitive. The gyrA mutants of CA8000 were isolated as nalidixic acid resistant colonies (20 ug/ml), after mutagenic treatment with NTG ([…]). The isolated CA8000 gyrA mutants were also sensitive only to a isomer of arteether. […] To define precisely the involvement of gyr genes only in the a-arteether sensitivity, we utilised two recombinant clones (pMK 90 and pMK47 containing functional gyr A and gyrB genes respectively) in trans-complementation assays. For this purpose, we mobilized the plasmid clones into the E.coli gyr mutant strains. The resulting transformants were now nalidixic acid sensitive and a-arteether resistant. This constituted the direct evidence supporting our observation that DNA gyrase enzyme alone is involved in conferring a-arteether sensitivity to E.coli strain. […] DNA gyrase enzyme is essential for the bacterial growth. This enzyme transiently breaks the DNA strands and introduces negative superhelical turns in an ATP-dependent process. The E.coli DNA gyrase enzyme is a tetramer with two subunits A and B. These two subunits are nalidixic acid and coumermycin sensitive respectively (U.S. Pat. No. 6,127,405 and a co-pending patent).
# (§2) In order to develop an arteether resistant mutants from an arteether sensitive strains a reverse strategy was applied. Quinoline/fluoroquinolone (Q/FQs) resistant strains were developed spontaneously i.e. screening overnight log phase culture of the Quinolone/fluoroquinolone sensitive i.e. arteether resistant strain (E coli CA 8000) on the poison agar plate of the Q/FQs. The Q/FQ resistant mutants which appeared on the poison agar plates were first purified through single colony purification and then checked for their arteether sensitivity. These arteether sensitive mutants on the contrary when checked for their Q/Fqs resistance they show different level of Q/FQs resistance.
# (§3) The strains of E coli mutants were grown on Luria agar medium and beta-arteether (250 μg/disc) was applied on disc. The clear zone around the disc killing the bacteria is called Zone of Inhibition (ZOI). This is the measure of sensitivity of the strain towards the compound […].
# [2] = system: E. coli mutant CA8012; assay: Disc diffusion, zone of inhibition; conditions: 250 μg/disc, Luria agar
# Method: as §1, §2, §3
# [3] = system: E. coli mutant CA8002; assay: Disc diffusion, zone of inhibition; conditions: 250 μg/disc, Luria agar
# Method: as §1, §2, §3
# [4] = system: E. coli mutant CA8009; assay: Disc diffusion, zone of inhibition; conditions: 250 μg/disc, Luria agar
# Method: as §1, §2, §3
# [5] = system: E. coli mutant CA8003; assay: Disc diffusion, zone of inhibition; conditions: 250 μg/disc, Luria agar
# Method: as §1, §2, §3
# [6] = system: E. coli mutant CA8010; assay: Disc diffusion, zone of inhibition; conditions: 250 μg/disc, Luria agar
# Method: as §1, §2, §3
# [7] = system: E. coli mutant CA8001; assay: Disc diffusion, zone of inhibition; conditions: 250 μg/disc, Luria agar
# Method: as §1, §2, §3
# [8] = system: E. coli mutant CA8006; assay: Disc diffusion, zone of inhibition; conditions: 250 μg/disc, Luria agar
# Method: as §1, §2, §3
# [9] = system: E. coli DH5 α (gyrA−); assay: Disc diffusion, zone of inhibition; conditions: 250 μg/disc, Luria agar
# Method: as §1, §3
# [10] = system: E. coli ET8000 (gyrA−); assay: Disc diffusion, zone of inhibition; conditions: 250 μg/disc, Luria agar
# Method: as §1, §3
# [11] = system: E. coli NK5819 (gyrA−); assay: Disc diffusion, zone of inhibition; conditions: 250 μg/disc, Luria agar
# Method: as §1, §3
# [12] = system: gyr mutant strains of E.coli; assay: Arteether sensitivity of gyr mutants; conditions: gyr mutants DH5a, NK5819, MTCC 482, CA8000 gyrA mutants
# Method: as §1, with “This enzyme transiently breaks the DNA strands and introduces negative superhelical turns in an ATP-dependent process. The E.coli DNA gyrase enzyme is a tetramer with two subunits A and B. These two subunits are nalidixic acid and coumermycin sensitive respectively (U.S. Pat. No. 6,127,405 and a co-pending patent).” left out
smiles,measurement,setting,value
CCO[C@H]1O[C@@H]2O[C@@]3(C)CC[C@H]4[C@H](C)CC[C@@H]([C@H]1C)[C@@]24OO3 [beta-arteether],Net ZOI in mm,[1],8 mm
same,Net ZOI in mm,[2],8 mm
same,Net ZOI in mm,[3],5 mm
same,Net ZOI in mm,[4],14 mm
same,Net ZOI in mm,[5],9 mm
same,Net ZOI in mm,[6],10 mm
same,Net ZOI in mm,[7],10 mm
same,Net ZOI in mm,[8],11 mm
same,Net ZOI in mm,[9],5 mm
same,Net ZOI in mm,[10],5 mm
same,Net ZOI in mm,[11],7 mm
same,Sensitivity,[12],none of the above described gyr mutants were sensitive
